In PubChem BioAssay (NCI):
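The compound was tested at five concentrations on cells cultured in 96-well plates, with a 48-hour exposure period. GI50 is the concentration that inhibits growth by half. TGI: total growth inhibition.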

Key:
Experiment in all cases: NCI anticancer screen, dose series, 48 h
NCI-H23 lung = test system: NCI-H23 lung
OVCAR-3 ovarian = test system: OVCAR-3 ovarian
UACC-62 melanoma = test system: UACC-62 melanoma
HCT-116 colon = test system: HCT-116 colon
SK-MEL-28 melanoma = test system: SK-MEL-28 melanoma
RPMI-8226 leukemia = test system: RPMI-8226 leukemia
LOX IMVI melanoma = test system: LOX IMVI melanoma
HT29 colon = test system: HT29 colon
HCT-15 colon = test system: HCT-15 colon
A549 NSCLC = test system: A549 NSCLC
BT-549 breast = test system: BT-549 breast
U251 CNS = test system: U251 CNS
SK-MEL-5 melanoma = test system: SK-MEL-5 melanoma
PC-3 prostate = test system: PC-3 prostate
786-0 renal = test system: 786-0 renal
SN12C renal = test system: SN12C renal
NCI/ADR-RES ovarian = test system: NCI/ADR-RES ovarian
HL-60(TB) leukemia = test system: HL-60(TB) leukemia
OVCAR-4 ovarian = test system: OVCAR-4 ovarian
OVCAR-8 ovarian = test system: OVCAR-8 ovarian
HCC-2998 colon = test system: HCC-2998 colon
MOLT-4 leukemia = test system: MOLT-4 leukemia
MCF7 breast = test system: MCF7 breast
SNB-75 CNS = test system: SNB-75 CNS
TK-10 renal = test system: TK-10 renal
HS 578T breast = test system: HS 578T breast
A498 renal = test system: A498 renal
T-47D breast = test system: T-47D breast
HOP-92 NSCLC = test system: HOP-92 NSCLC
OVCAR-5 ovarian = test system: OVCAR-5 ovarian
SF-295 CNS = test system: SF-295 CNS
MDA-MB-435 = test system: MDA-MB-435
SNB-19 CNS = test system: SNB-19 CNS
SF-539 CNS = test system: SF-539 CNS
SW-620 colon = test system: SW-620 colon
K-562 leukemia = test system: K-562 leukemia
CCRF-CEM leukemia = test system: CCRF-CEM leukemia
KM12 colon = test system: KM12 colon
IGROV1 ovarian = test system: IGROV1 ovarian
HOP-62 NSCLC = test system: HOP-62 NSCLC
SK-OV-3 ovarian = test system: SK-OV-3 ovarian
NCI-H226 lung = test system: NCI-H226 lung
COLO 205 colon = test system: COLO 205 colon
UO-31 renal = test system: UO-31 renal
DU-145 prostate = test system: DU-145 prostate
RXF 393 renal = test system: RXF 393 renal
ACHN renal = test system: ACHN renal
NCI-H522 lung = test system: NCI-H522 lung
MDA-MB-231 breast = test system: MDA-MB-231 breast
SK-MEL-2 melanoma = test system: SK-MEL-2 melanoma
MALME-3M melanoma = test system: MALME-3M melanoma
CAKI-1 renal = test system: CAKI-1 renal
SF-268 CNS = test system: SF-268 CNS
NCI-H460 lung = test system: NCI-H460 lung

## COC(=O)C(N)CSC(c1ccccc1)(c1ccccc1)c1ccccc1 (stereo not drawn)
NCI-H23 lung
  GI50: 4.45 µM
  TGI: > 100 µM
OVCAR-3 ovarian
  GI50: 2.97 µM
  TGI: 44.8 µM
UACC-62 melanoma
  GI50: 2.18 µM
  TGI: > 100 µM
HCT-116 colon
  GI50: 0.418 µM
  TGI: 34.4 µM
SK-MEL-28 melanoma
  GI50: 3.14 µM
  TGI: > 100 µM
RPMI-8226 leukemia
  GI50: 0.676 µM
  TGI: 28.5 µM
LOX IMVI melanoma
  GI50: 4.48 µM
  TGI: > 100 µM
HT29 colon
  GI50: 3.36 µM
  TGI: 59.6 µM
HCT-15 colon
  GI50: 2.7 µM
  TGI: > 100 µM
A549 NSCLC
  GI50: 2.93 µM
  TGI: > 100 µM
BT-549 breast
  GI50: 2.29 µM
  TGI: 53.3 µM
U251 CNS
  GI50: 0.61 µM
  TGI: > 100 µM
SK-MEL-5 melanoma
  GI50: 0.538 µM
  TGI: 26.9 µM
PC-3 prostate
  GI50: 1.72 µM
  TGI: > 100 µM
786-0 renal
  GI50: 4.23 µM
  TGI: 86.5 µM
SN12C renal
  GI50: 0.863 µM
  TGI: > 100 µM
NCI/ADR-RES ovarian
  GI50: 8.81 µM
  TGI: 73.5 µM
HL-60(TB) leukemia
  GI50: 1.82 µM
  TGI: 8.48 µM
OVCAR-4 ovarian
  GI50: 15.5 µM
  TGI: > 100 µM
OVCAR-8 ovarian
  GI50: 2.53 µM
  TGI: > 100 µM
HCC-2998 colon
  GI50: 2.1 µM
  TGI: 29.9 µM
MOLT-4 leukemia
  GI50: 4 µM
  TGI: > 100 µM
MCF7 breast
  GI50: 0.445 µM
  TGI: > 100 µM
SNB-75 CNS
  GI50: 3.68 µM
  TGI: 41.6 µM
TK-10 renal
  GI50: 7.04 µM
  TGI: 83.5 µM
HS 578T breast
  GI50: 0.512 µM
  TGI: 15 µM
A498 renal
  GI50: 0.629 µM
  TGI: 54 µM
T-47D breast
  GI50: 4.62 µM
  TGI: > 100 µM
HOP-92 NSCLC
  GI50: 0.436 µM
  TGI: 13.2 µM
OVCAR-5 ovarian
  GI50: 3.84 µM
  TGI: > 100 µM
SF-295 CNS
  GI50: 2.89 µM
  TGI: > 100 µM
MDA-MB-435
  GI50: 0.247 µM
  TGI: 0.644 µM
SNB-19 CNS
  GI50: 1.58 µM
  TGI: > 100 µM
SF-539 CNS
  GI50: 0.399 µM
  TGI: 3.53 µM
SW-620 colon
  GI50: 0.679 µM
  TGI: > 100 µM
K-562 leukemia
  GI50: 0.63 µM
  TGI: > 100 µM
CCRF-CEM leukemia
  GI50: 0.636 µM
  TGI: > 100 µM
KM12 colon
  GI50: 2.88 µM
  TGI: 53.5 µM
IGROV1 ovarian
  GI50: 9.86 µM
  TGI: > 100 µM
HOP-62 NSCLC
  GI50: 48.9 µM
  TGI: > 100 µM
SK-OV-3 ovarian
  GI50: 0.607 µM
  TGI: > 100 µM
NCI-H226 lung
  GI50: 5.38 µM
  TGI: > 100 µM
COLO 205 colon
  GI50: 2.15 µM
  TGI: > 100 µM
UO-31 renal
  GI50: 9.93 µM
  TGI: > 100 µM
DU-145 prostate
  GI50: 3.26 µM
  TGI: > 100 µM
RXF 393 renal
  GI50: 0.303 µM
  TGI: 11.7 µM
ACHN renal
  GI50: 0.922 µM
  TGI: > 100 µM
NCI-H522 lung
  GI50: 0.334 µM
  TGI: 2.22 µM
MDA-MB-231 breast
  GI50: 1.62 µM
  TGI: 25.4 µM
SK-MEL-2 melanoma
  GI50: 0.493 µM
  TGI: 5.72 µM
MALME-3M melanoma
  GI50: 4.7 µM
  TGI: 74 µM
CAKI-1 renal
  GI50: 5.51 µM
  TGI: > 100 µM
SF-268 CNS
  GI50: 1.04 µM
  TGI: > 100 µM
NCI-H460 lung
  GI50: 2.42 µM
  TGI: 43.8 µM
